Assay results taken from PubChem BioAssay AID1671291.

Target: Tyrosine-protein kinase HCK (Homo sapiens) (UniProt P08631)
Experiment: inhibitors of human HCK tyrosine kinase activity – biochemical, Z'-LYTE, FRET readout, direct format, dose response (AID 1671291)
Settings: Z'-LYTE FRET peptide phosphorylation, recombinant HCK

Tyrosine-protein kinase HCK (Homo sapiens), sequence (P08631 whole entry, looked up): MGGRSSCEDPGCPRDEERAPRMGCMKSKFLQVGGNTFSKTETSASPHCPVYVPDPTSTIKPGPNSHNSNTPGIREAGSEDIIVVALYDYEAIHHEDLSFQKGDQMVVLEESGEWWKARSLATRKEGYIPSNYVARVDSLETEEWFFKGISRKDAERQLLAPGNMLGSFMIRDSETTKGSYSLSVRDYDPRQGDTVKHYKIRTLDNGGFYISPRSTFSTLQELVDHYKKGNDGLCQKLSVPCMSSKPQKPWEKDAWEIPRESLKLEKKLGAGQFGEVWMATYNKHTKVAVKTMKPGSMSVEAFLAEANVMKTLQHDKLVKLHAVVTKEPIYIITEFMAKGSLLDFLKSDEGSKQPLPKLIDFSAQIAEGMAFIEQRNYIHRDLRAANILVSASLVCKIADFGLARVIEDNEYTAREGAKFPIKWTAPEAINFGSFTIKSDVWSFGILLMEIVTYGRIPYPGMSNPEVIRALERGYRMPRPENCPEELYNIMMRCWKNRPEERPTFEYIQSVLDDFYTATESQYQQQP

IC50: 943 nM
Compound: COc1cc2ncnc(Nc3cccc(Cl)c3)c2cc1OC
